Laboratory results reported in patent publication US20210163404A1, “NOVEL UREA COMPOUNDS AND BIOISOSTERES THEREOF AND THEIR USE FOR TREATING INFLAMMATION AND INFLAMMATION-RELATED PATHOLOGIES” (UNIVERSITÉ LAVAL, priority 2017, published 2021).
Values joined by “and” are separate entries in the source; they are usually repeats but may differ in a detail not shown here. Equal values may be shown once.

Legend:
[1] = system: HT-29 colon adenocarcinoma cells; experiment: Antiproliferative activity (NCI procedure, sulforhodamine B), HT-29; type: cell-based, human; details: Homo sapiens, HT-29, unit inferred, tested 781 nM to 100 μM, 48 h
Description: (§1) The antiproliferative activity of compounds 3a-b, 4a-e, 5a-e and 6a-e was subsequently evaluated using the human HT-29 colon adenocarcinoma and the A549 adenocarcinoma alveolar epithelial cancer cell lines, the HaCaT spontaneously transformed aneuploid immortal keratinocyte cell line and the HDFn neonatal dermal fibroblast cell line (Table 2). Cell growth inhibition was assessed according to the NCI/NIH Developmental Therapeutics Program.
(§2) The antiproliferative activity assay of all compounds was assessed using the procedure recommended by the National Cancer Institute for its drug screening program with minor modifications. Briefly, 96-well microtiter plates were seeded with 75 μL of a suspension of either HaCaT (5×10^3), HT-29 (3.0×10^3), A549 (3.0×10^3) or HDFn (3×10^3) cells per well in DMEM and incubated for 24 h at 37° C. in a moisture-saturated atmosphere containing 5% CO2. Compounds freshly solubilized in DMSO (40 mM) were diluted in fresh DMEM, and 75 μL aliquots containing serially diluted concentrations of the compound were added. Final compound concentrations ranged from 100 μM to 781 nM. DMSO was maintained at a concentration of <0.5% (v/v) to avoid any related cytotoxicity. Plates were subsequently incubated for 48 h. Cell growth was then stopped by the addition of cold trichloroacetic acid to the wells (10% w/v, final concentration), followed by a 1 h incubation period at 4° C. The plates were washed 4-times with water. A sulforhodamine B solution (75 μL; 0.1% w/v) in acetic acid (1%) was subsequently added to each well and the plates incubated over a 15 min period while at room temperature. After staining, any unbound dye was removed by washing 4-times with an acetic acid solution (1%). Bound dye was solubilized in 20 mM Tris base and the absorbance was measured at an optimal wavelength (530-568 nm) using a μQuant® Universal microplate spectrophotometer (BioTek, Winooski, Vt.). The measurements for treated cells were compared with measurements from control cell plates fixed on treatment day and the percentage of cell growth inhibition was calculated for each drug. The experiments were performed at least twice in triplicate. The assays were considered valid when the coefficient of variation for a given set of conditions and within the same experiment was <10%.

[2] = system: HaCaT keratinocyte cell line; experiment: Antiproliferative activity (NCI procedure, sulforhodamine B), HaCaT; type: cell-based, human; details: Homo sapiens, HaCaT, unit inferred, tested 781 nM to 100 μM, 48 h
Description: as §1, §2

[3] = system: HDFn neonatal dermal fibroblast cell line; experiment: Antiproliferative activity (NCI procedure, sulforhodamine B), HDFn; type: cell-based, human; details: Homo sapiens, Fibroblast, unit inferred, tested 781 nM to 100 μM, 48 h
Description: as §1, §2

[4] = system: A549 adenocarcinoma alveolar epithelial cancer cells; experiment: Antiproliferative activity (NCI procedure, sulforhodamine B), A549; type: cell-based, human; details: Homo sapiens, A549, unit inferred, tested 781 nM to 100 μM, 48 h
Description: as §1, §2

Structure (SMILES)	melting point	IC50 ([1]; Table 7)	IC50 ([2]; Table 7)	IC50 ([3]; Table 7)	IC50 ([4]; Table 7)	other results
O=C(NCC1CCCC1)Nc1ccc(C2CCCCC2)cc1 [Compound 59]	142 to 144 °C					
CC(C)(C)c1cccc(NC(=O)NC2CCC2)c1 [Compound 46, 1-(3-(t-Butyl)phenyl)-3-cyclobutylurea]	165 to 166 °C					
O=C(NCC1CC1)Nc1ccc(C2CCCCC2)cc1 [Compound 55, 1-(4-Cyclohexylphenyl)-3-(cyclopropylmethyl)urea]	178 to 181 °C					
O=C(Nc1cccc(I)c1)NC1CC=CC1 [Compound 41, 1-(Cyclopent-3-en-1-yl)-3-(3-iodophenyl)urea]	151 to 153 °C					
O=c1c(Nc2cccc(C3CCCCC3)c2)c(NC2CCCC2)c1=O [Compound 81]		4.3 µM	5.6 µM	1.9 µM	3.7 µM	
CC(C)NC(=O)Nc1ccc(I)cc1 [Compound 1]						IC50 ([1]; Table 5): 54.8 µM; IC50 ([2]; Table 5): 91.9 µM; IC50 ([3]; Table 5): 83.6 µM; IC50 ([4]; Table 5): 81.9 µM
CC(C)(C)c1cccc(NC(=O)NCC2CC2)c1 [Compound 45, 1-(3-(t-Butyl)phenyl)-3-(cyclopropylmethyl)urea]	165 to 166 °C					
CC(C)(C)c1cccc(Nc2c(NC3CC3)c(=O)c2=O)c1 [Compound 85]		64.1 µM	81.4 µM	57.3 µM	40.8 µM	
O=c1c(Nc2ccc(C3CCCCC3)cc2)c(NC2CCCC2)c1=O [Compound 78]		> 100 µM	> 100 µM	> 100 µM	96.1 µM	
CCC(CC)NC(=O)Nc1cccc(C(C)(C)C)c1 [Compound 53, 1-(3-(t-Butyl)phenyl)-3-(pentan-3-yl)urea]	159 to 161 °C					
O=C(Nc1ccc(I)cc1)NC1CCC1 [Compound 22, 1-Cyclobutyl-3-(4-iodophenyl)urea]	208 to 210 °C					
CCC(CC)NC(=O)Nc1ccc(C(C)(C)C)cc1 [Compound 34, 1-(4-(t-Butyl)phenyl)-3-(pentan-3-yl)urea]	119 to 121 °C					
O=c1c(Nc2ccc(I)cc2)c(NC2CC2)c1=O [Compound 70]		> 100 µM	> 100 µM	> 100 µM	> 100 µM	
O=c1c(NCC2CCC2)c(Nc2ccc(C3CCCCC3)cc2)c1=O [Compound 77]		> 100 µM	> 100 µM	> 100 µM	89.6 µM	
CC(C)(C)CNC(=O)Nc1ccc(C(C)(C)C)cc1 [Compound 65, 1-(4-(t-Butyl)phenyl)-3-neopentylurea]	185 to 187 °C					
O=c1c(NCC2CCC2)c(Nc2ccc(I)cc2)c1=O [Compound 71]		> 100 µM	> 100 µM	> 100 µM	> 100 µM	
CC(C)(C)CNC(=O)Nc1cccc(I)c1 [Compound 43, 1-(3-Iodophenyl)-3-neopentylurea]	114 to 115 °C					
O=c1c(Nc2cccc(C3CCCCC3)c2)c(NC2CC2)c1=O [Compound 79]		7.9 µM	11 µM	4.3 µM	8 µM	
O=C(Nc1cccc(I)c1)NC1CCC1 [Compound 38, 1-Cyclobutyl-3-(3-iodophenyl)urea]	178 to 180 °C					
O=C(NCC1CC1)Nc1ccc(I)cc1 [Compound 21, 1-(Cyclopropylmethyl)-3-(4-iodophenyl)urea]	192 to 194 °C					
CC(C)(C)CNC(=O)Nc1cccc(C(C)(C)C)c1 [Compound 51, 1-(3-(t-Butyl)phenyl)-3-neopentylurea]	145 to 147 °C					
O=C(NCC1CC1)Nc1cccc(I)c1 [Compound 37, 1-(Cyclopropylmethyl)-3-(3-iodophenyl)urea]	139 to 140 °C					
CC(C)(C)c1ccc(NC(=O)NC2CCC2)cc1 [Compound 29, 1-(4-(t-Butyl)phenyl)-3-cyclobutylurea]	189 to 190 °C					

Structure (SMILES)	melting point	IC50 ([1]; Table 7)	IC50 ([2]; Table 7)	IC50 ([3]; Table 7)	IC50 ([4]; Table 7)	other results
CCNC(=S)Nc1cccc(C2CCCCC2)c1 [Compound 104]						IC50 ([1]; Table 8): 17.9 µM; IC50 ([2]; Table 8): 19.3 µM; IC50 ([3]; Table 8): 12.9 µM; IC50 ([4]; Table 8): 22.4 µM
O=c1c(Nc2ccc(C3CCCCC3)cc2)c(NC2CC2)c1=O [Compound 76]		> 100 µM	> 100 µM	> 100 µM	74 µM	
CC(C)(C)c1ccc(Nc2c(NC3CCCC3)c(=O)c2=O)cc1 [Compound 84]		> 100 µM	> 100 µM	> 100 µM	15.1 µM	
CC(C)(C)CNC(=O)Nc1ccc(C2CCCCC2)cc1 [Compound 61, 1-(4-Cyclohexylphenyl)-3-neopentylurea]	167 to 169 °C					
CC(C)(C)c1cccc(NC(=O)NC2CC=CC2)c1 [Compound 50, 1-(3-(t-Butyl)phenyl)-3-(cyclopent-3-en-1-yl)urea]	135 to 137 °C					
CC(C)(C)c1cccc(Nc2c(NC3CCCC3)c(=O)c2=O)c1 [Compound 87]		4.3 µM	5.5 µM	2.8 µM	4 µM	
CC(C)(C)c1ccc(NC(=O)NCC2CC2)cc1 [Compound 28, 1-(4-(t-Butyl)phenyl)-3-(cyclopropylmethyl)urea]	168 to 170 °C					
O=C(NCC1CCCC1)Nc1ccc(I)cc1 [Compound 25, 1-(Cyclopentylmethyl)-3-(4-iodophenyl)urea]	158 to 161 °C and 158 to 162 °C					
O=c1c(NCC2CCC2)c(Nc2cccc(C3CCCCC3)c2)c1=O [Compound 80]		4.5 µM	6 µM	1.9 µM	4.2 µM	
O=c1c(Nc2ccc(I)cc2)c(NC2CCCC2)c1=O [Compound 72]		10 µM	10.6 µM	6.9 µM	8 µM	
CC(C)(C)c1cccc(Nc2c(NCC3CCC3)c(=O)c2=O)c1 [Compound 86]		14.8 µM	56.1 µM	3.8 µM	13.7 µM	
CCC(CC)NC(=O)Nc1ccc(I)cc1 [Compound 64, 1-(4-Iodophenyl)-3-(pentan-3-yl)urea]	174 to 176 °C					
O=C(Nc1ccc(C2CCCCC2)cc1)NC1CC=CC1 [Compound 60, 1-(4-Cyclohexylphenyl)-3-(cyclopent-3-en-1-yl)urea]	167 to 169 °C					
O=c1c(Nc2cccc(I)c2)c(NC2CCCC2)c1=O [Compound 75]		15.2 µM	11.8 µM	4.6 µM	9 µM	
CCC(CC)NC(=O)Nc1ccc(C2CCCCC2)cc1 [Compound 62, 1-(4-Cyclohexylphenyl)-3-(pentan-3-yl)urea]	174 to 176 °C					
COCCNC(=O)Nc1cccc(I)c1 [Compound 42, 1-(3-Iodophenyl)-3-(2-methoxyethyl)urea]	99 to 101 °C					
O=C(Nc1ccc(I)cc1)NC1CC=CC1 [Compound 35, 1-(Cyclopent-3-en-1-yl)-3-(4-iodophenyl)urea]	201 to 202 °C					
CC(C)(C)c1ccc(Nc2c(NC3CC3)c(=O)c2=O)cc1 [Compound 82]		18.7 µM	47.9 µM	13.2 µM	17.9 µM	
COCCNC(=O)Nc1ccc(C(C)(C)C)cc1 [Compound 33, 1-(4-(t-Butyl)phenyl)-3-(2-methoxyethyl)urea]	122 to 124 °C					
CC(C)(C)c1ccc(Nc2c(NCC3CCC3)c(=O)c2=O)cc1 [Compound 83]		> 100 µM	> 100 µM	> 100 µM	> 100 µM	
O=c1c(Nc2cccc(I)c2)c(NC2CC2)c1=O [Compound 73]		39.8 µM	37.7 µM	19.6 µM	26.8 µM	
O=c1c(NCC2CCC2)c(Nc2cccc(I)c2)c1=O [Compound 74]		15 µM	10.9 µM	4.1 µM	8.3 µM	
